Laboratory results: patent US10544130B2, “Metallo-beta-lactamase inhibitors” (priority 2015, dated 2020)
Structures can show the parent of a compound that is named as a salt.

Experiments:
[1] = system: Escherichia coli expressing NDM-1 (CLB30005, CLB30016); assay type: cell-based; conditions: with imipenem 1 μg/ml; 95% inhibition of bacterial growth
How it was run: (§1)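 Growth read by absorbance after 22–24 h at 35 °C in CAMHB, with test compound alone or combined with 1 μg/ml imipenem. Inocula came from overnight 35 °C blood-agar colonies, set to a defined OD600 and diluted 1:100. Value is the inhibitor concentration giving synergy.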

[2] = system: Serratia marcescens expressing IMP-1 (CL5741); assay type: cell-based; conditions: with imipenem 1 μg/ml; 95% inhibition of bacterial growth
How it was run: as §1

[3] = system: Pseudomonas aeruginosa PAO1 MB9798 (efflux+, IMP-1); conditions: ratio MITC95 PA 9798/MITC95 PA 9799; imipenem at 2 μg/mL
How it was run: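 Isogenic PAO1 pair (efflux+ MB9798, efflux− MB9799, both IMP-1) tested by microbroth MIC with fixed imipenem and/or ceftazidime, usually at CLSI breakpoint, plus fixed class A/C inhibitor against AmpC. MBL inhibitor titrated; concentration restoring susceptibility recorded and fold difference between strains taken as efflux extent.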

Structure (SMILES) | Escherichia coli (NDM-1) MITC95 [1] | Serratia marcescens (IMP-1) MITC95 [2] | Efflux ratio [3]
NC[C@@H](N)CNS(=O)(=O)c1ccc(-c2cnc(N)s2)c(-c2nn[nH]n2)c1S(N)(=O)=O [Example 377, (R)-4-(2-aminothiazol-5-yl)-N1-(2,3-diaminopropyl)-3-(2H-tetrazol-5-yl)benzene-1,2-disulfonamide] | 0.7813 µM | 1.563 µM | 2.00
NCc1nc2c(-c3ccc(S(=O)(=O)NC(CN)CN)c(S(N)(=O)=O)c3-c3nn[nH]n3)cccc2[nH]1 [Example 385, 4-(2-(Aminomethyl)-1H-benzo[d]imidazol-4-yl)-N1-(1,3-diaminopropan-2-yl)-3-(2H-tetrazol-5-yl)benzene-1,2-disulfonamide] | 0.7813 µM | 0.7813 µM | 1.00
NCc1nc2cc(-c3ccc(S(=O)(=O)N[C@@H]4CCNC4)c(S(N)(=O)=O)c3-c3nn[nH]n3)ccc2s1 [Example 275, (R)-4-(2-(aminomethyl)benzo[d]thiazol-5-yl)-N^1-(pyrrolidin-3-yl)-3-(2H-tetrazol-5-yl)benzene-1,2-disulfonamide] | 0.7813 µM | 0.7813 µM | 1.00
Nc1nc2c(-c3ccc(S(=O)(=O)NC[C@@H]4CNCCN4)c(S(N)(=O)=O)c3-c3nn[nH]n3)cccc2[nH]1 [Example 310, (S)-4-(2-amino-1H-benzo[d]imidazol-4-yl)-N1-(piperazin-2-ylmethyl)-3-(2H-tetrazol-5-yl)benzene-1,2-disulfonamide] | 0.7813 µM | 0.7813 µM | 1.00
Nc1ccc(-c2ccc(S(=O)(=O)NC3CNC3)c(S(N)(=O)=O)c2-c2nn[nH]n2)cn1 [Example 493, 4-(6-aminopyridin-3-yl)-N1-(azetidin-3-yl)-3-(2H-tetrazol-5-yl)benzene-1,2-disulfonamide] | 0.3906 µM | 0.3906 µM | –
NCc1nc2c(-c3ccc(S(=O)(=O)NC[C@@H]4CNCCN4)c(S(N)(=O)=O)c3-c3nn[nH]n3)cccc2[nH]1 [Example 311, (S)-4-(2-(aminomethyl)-1H-benzo[d]imidazol-4-yl)-N-(piperazin-2-ylmethyl)-3-(2H-tetrazol-5-yl)benzene-1,2-disulfonamide] | 1.563 µM | 1.563 µM | –
Nc1ncc(-c2ccc(S(=O)(=O)N[C@H]3CNC[C@H]3N)c(S(N)(=O)=O)c2-c2nn[nH]n2)s1 [Example 325, N1-((3S,4R)-4-aminopyrrolidin-3-yl)-4-(2-aminothiazol-5-yl)-3-(2H-tetrazol-5-yl)benzene-1,2-disulfonamide] | 0.7813 µM | 1.563 µM | 2.00
NCC(CN)NS(=O)(=O)c1ccc(-c2cccc3[nH]nnc23)c(-c2nn[nH]n2)c1S(N)(=O)=O [Example 403, 4-(1H-benzo [d][1,2,3]triazol-4-yl)-N^1-(1,3-diaminopropan-2-yl)-3-(2H-tetrazol-5-yl)benzene-1,2-disulfonamide] | 1.563 µM | 1.563 µM | –
NS(=O)(=O)c1c(S(=O)(=O)N[C@@H]2CCNC2)ccc(-c2cccc(Nc3nc(CO)cs3)c2)c1-c1nn[nH]n1 [Example 470, (R)-3′-((4-(hydroxymethyl)thiazol-2-yl)amino)-N4-(pyrrolidin-3-yl)-2-(2H-tetrazol-5-yl)-[1,1′-biphenyl]-3,4-disulfonamide] | 0.7813 µM | 1.563 µM | –
NCc1nc2c(-c3ccc(S(=O)(=O)N[C@@H](CN)CO)c(S(N)(=O)=O)c3-c3nn[nH]n3)cccc2s1 [Example 381, (S)—N1-(1-amino-3-hydroxypropan-2-yl)-4-(2-(aminomethyl)benzo[d]thiazol-4-yl)-3-(2H-tetrazol-5-yl)benzene-1,2-disulfonamide] | 0.7813 µM | 1.172 µM | 1.50
Nc1nc2c(-c3ccc(S(=O)(=O)NC[C@@]4(N)CCNC4)c(S(N)(=O)=O)c3-c3nn[nH]n3)cccc2[nH]1 [Example 251, (R)-4-(2-amino-1H-benzo[d]imidazol-4-yl)-N1-((3-aminopyrrolidin-3-yl)methyl)-3-(2H-tetrazol-5-yl)benzene-1,2-disulfonamide] | 0.7813 µM | 0.7813 µM | 1.00
NCc1nc2c(-c3ccc(S(=O)(=O)NC[C@@H](O)CN)c(S(N)(=O)=O)c3-c3nn[nH]n3)cccc2s1 [Example 306, (S)—N1-(3-amino-2-hydroxypropyl)-4-(2-(aminomethyl)benzo[d]thiazol-4-yl)-(2H-tetrazol-5-yl)benzene-1,2-disulfonamide] | 0.7813 µM | 0.7813 µM | 1.00
NCCNS(=O)(=O)c1ccc(-c2cccc3ncccc23)c(-c2nn[nH]n2)c1S(N)(=O)=O [Example 360, N1-(2-aminoethyl)-4-(quinolin-5-yl)-3-(2H-tetrazol-5-yl)benzene-1,2-disulfonamide] | 1.563 µM | 1.563 µM | –
NS(=O)(=O)c1c(S(=O)(=O)N[C@@H]2CNC[C@@H]2O)ccc(-c2cccc3[nH]nnc23)c1-c1nn[nH]n1 [Example 412, 4-(1H-benzo[d][1,2,3]triazol-4-yl)-N^1-((3R,4S)-4-hydroxypyrrolidin-3-yl)-3-(2H-tetrazol-5-yl)benzene-1,2-disulfonamide] | 3.125 µM | 3.125 µM | –
Nc1nc2c(-c3ccc(S(=O)(=O)NCC4(O)CNC4)c(S(N)(=O)=O)c3-c3nn[nH]n3)cccc2s1 [Example 387, 4-(2-amino-1,3-benzothiazol-4-yl)-N^1-[(3-hydroxyazetidin-3-yl)methyl]-3-(2H-tetrazol-5-yl)benzene-1,2-disulfonamide] | 1.563 µM | 1.563 µM | –
NCCNS(=O)(=O)c1ccc(-c2cccc(NC(=O)[C@H](N)CO)c2)c(-c2nn[nH]n2)c1S(N)(=O)=O [Example 454, (R)-2-amino-N-(4′-(N-(2-aminoethyl)sulfamoyl)-3′-sulfamoyl-2′-(2H-tetrazol-5-yl)-[1,1′-biphenyl]-3-yl)-3-hydroxypropanamide] | 1.563 µM | 3.125 µM | –
NCc1sc(N)nc1-c1cccc(-c2ccc(S(=O)(=O)N[C@@H]3CCNC3)c(S(N)(=O)=O)c2-c2nnn[nH]2)c1 [Example 432, (R)-3′-(2-amino-5-(aminomethyl)thiazol-4-yl)-N^4-(pyrrolidin-3-yl)-2-(1H-tetrazol-5-yl)-[1,1′-biphenyl]-3,4-disulfonamide] | 0.7813 µM | 0.7813 µM | –
NCc1nc2cc(-c3ccc(S(=O)(=O)NC[C@H](O)CN)c(S(N)(=O)=O)c3-c3nn[nH]n3)ccc2s1 [Example 463, (R)—N1-(3-amino-2-hydroxypropyl)-4-(2-(aminomethyl)benzo[d]thiazol-5-yl)-3-(2H-tetrazol-5-yl)benzene-1,2-disulfonamide] | 0.7813 µM | 0.7813 µM | –
C[N+](C)(C)CCCNS(=O)(=O)c1ccc(-c2cccc3sc(N)nc23)c(-c2nnn[nH]2)c1S(N)(=O)=O [Example 392, 3-({[4-(2-amino-1,3-benzothiazol-4-yl)-2-sulfamoyl-3-(1H-tetrazol-5-yl)phenyl]sulfonyl}amino)-N,N,N-trimethylpropan-1-amimum trifluoroacetate] | 3.125 µM | 3.125 µM | –
CNc1nc2c(-c3ccc(S(=O)(=O)NCCN)c(S(N)(=O)=O)c3-c3nn[nH]n3)cccc2[nH]1 [Example 467, N1-(2-aminoethyl)-4-(2-(methylamino)-1H-benzo[d]imidazol-4-yl)-3-(2H-tetrazol-5-yl)benzene-1,2-disulfonamide] | 0.7813 µM | 0.7813 µM | –
C[N+]1(CCN)CC[C@H](NS(=O)(=O)c2ccc(-c3cccc4[nH]c(N)nc34)c(-c3nn[nH]n3)c2S(N)(=O)=O)C1 (stereo partly drawn) [Example 249, (3S)-3-{[4-(2-amino-1H-1,3-benzodiazol-4-yl)-2-sulfamoyl-3-(2H-1,2,3,4-tetrazol-5-yl)benzene]sulfonamido}-1-(2-aminoethyl)-1-methylpyrrolidin-1-ium methaneperoxoate] | 0.3906 µM | 1.563 µM | –
C[C@@H](CN)NS(=O)(=O)c1ccc(-c2ccnc(N)c2)c(-c2nn[nH]n2)c1S(N)(=O)=O [Example 398, (S)-N^1-(1-aminopropan-2-yl)-4-(2-aminopyridin-4-yl)-3-(2H-tetrazol-5-yl)benzene-1,2-disulfonamide] | 3.125 µM | 1.563 µM | –
C[C@H](N)Cc1nc2c(-c3ccc(S(N)(=O)=O)c(S(N)(=O)=O)c3-c3nn[nH]n3)cccc2[nH]1 [Example 442, (S)-4-(2-(2-aminopropyl)-1H-benzo[d]imidazol-4-yl)-3-(2H-tetrazol-5-yl)benzene-1,2-disulfonamide] | 1.563 µM | 1.563 µM | –
